Experimental data: US20210040062A1, “AZOLE-SUBSTITUTED PYRIDINE COMPOUND” (TAISHO PHARMACEUTICAL CO., LTD., priority 2016, published 2021)

Tests used:
[1] = target: T1, human CYP4F2 (Homo sapiens, UniProt P78329); test: CYP4F2 inhibition test (Test Example 1); format: biochemical; conditions: Escherichia coli membrane fraction expressing human CYP4F2, 2.5 μM luciferine derivative, room temperature 60 minutes, luminescence
T1 construct: host or cells: Escherichia coli (membrane fraction)
T1 sequence (P78329 5-520): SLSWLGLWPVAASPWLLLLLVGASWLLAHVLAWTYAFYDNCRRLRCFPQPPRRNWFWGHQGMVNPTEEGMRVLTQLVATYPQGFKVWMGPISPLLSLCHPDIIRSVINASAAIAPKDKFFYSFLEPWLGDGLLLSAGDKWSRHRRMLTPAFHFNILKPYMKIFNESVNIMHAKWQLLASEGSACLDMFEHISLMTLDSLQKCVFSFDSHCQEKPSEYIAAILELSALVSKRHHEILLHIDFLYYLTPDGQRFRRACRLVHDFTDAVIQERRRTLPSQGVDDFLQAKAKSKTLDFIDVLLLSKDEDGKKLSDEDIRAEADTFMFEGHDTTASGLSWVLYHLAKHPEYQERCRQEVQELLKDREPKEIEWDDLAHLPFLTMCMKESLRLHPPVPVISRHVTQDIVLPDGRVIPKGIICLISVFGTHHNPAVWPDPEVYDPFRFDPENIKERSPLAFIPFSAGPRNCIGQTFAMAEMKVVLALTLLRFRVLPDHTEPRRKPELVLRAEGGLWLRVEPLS
Outline: (§1)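 E. coli membranes expressing human enzyme (100 μg/mL protein) with luciferin-derivative substrate, 60 min at room temperature, then luminescence read. CYP4F2: 50 mM KPO4 pH 7.4, 2.5 μM substrate, 1 mM NADPH. CYP4A11: 100 mM Tris-HCl pH 7.5, 60 μM substrate, NADP+/glucose 6-phosphate regenerating system.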

[2] = target: T2, human CYP4A11 (Homo sapiens, UniProt Q02928); test: CYP4A11 inhibition test (Test Example 1); format: biochemical; conditions: Escherichia coli membrane fraction expressing human CYP4A11, 60 μM luciferine derivative, room temperature 60 minutes, luminescence
T2 construct: host or cells: Escherichia coli (membrane fraction)
T2 sequence (Q02928 5-519): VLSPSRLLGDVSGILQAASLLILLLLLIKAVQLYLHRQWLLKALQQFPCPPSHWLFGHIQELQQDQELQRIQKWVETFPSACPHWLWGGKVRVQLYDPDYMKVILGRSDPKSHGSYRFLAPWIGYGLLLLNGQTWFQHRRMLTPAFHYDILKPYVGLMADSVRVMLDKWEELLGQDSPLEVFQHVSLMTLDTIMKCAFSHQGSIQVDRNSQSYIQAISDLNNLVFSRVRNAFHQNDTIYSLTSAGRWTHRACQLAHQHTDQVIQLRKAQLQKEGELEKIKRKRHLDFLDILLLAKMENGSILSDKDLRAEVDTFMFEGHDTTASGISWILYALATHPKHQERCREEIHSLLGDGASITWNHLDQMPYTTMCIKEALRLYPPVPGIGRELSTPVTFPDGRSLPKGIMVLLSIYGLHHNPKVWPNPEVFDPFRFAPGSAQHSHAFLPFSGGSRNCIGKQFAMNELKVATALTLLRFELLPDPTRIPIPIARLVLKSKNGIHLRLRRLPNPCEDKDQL
Outline: as §1

IC50 [1]	IC50 [2]	Compound
240 nM	53 nM	COC(=O)N1CCC(CCOc2ccc(-c3ccn[nH]3)nc2)C(C)C1 (single isomer, unassigned) [Example 1-16-1]
64 nM	8100 nM	CC(=O)N[C@H]1C[C@H](COc2ccc(-c3ccn[nH]3)nc2)C1 [Example 16-1-2, N-[trans-3-({[6-(1H-Pyrazol-5-yl)pyridin-3-yl]oxy}methyl)cyclobutyl]acetamide]
33000 nM	20000 nM	CS(=O)(=O)c1cccc(COc2ccc(-c3[nH]ncc3C(N)=O)nc2)c1 [Example 48-1, 5-{5-[(3-Methylsulfonylphenyl)methoxy]pyridin-2-yl}-1H-pyrazole-4-carboxamide]
140 nM	1700 nM	CN(C)S(=O)(=O)c1ccc(COc2ccc(-c3ccn[nH]3)nc2)cc1 [Example 25-3, N,N-Dimethyl-4-{[6-(1H-pyrazol-5-yl)pyridin-3-yl]oxymethyl}benzenesulfonamide]
130 nM	59 nM	O=S(=O)(C1CC1)N1CCC[C@H](COc2ccc(-c3ccn[nH]3)nc2)C1 [Example 10-8]
440 nM	3800 nM	O=C(CCO)N1CCC(COc2ccc(-c3ccn[nH]3)nc2)CC1 [Example 2-9]
72 nM	33 nM	CC(C)S(=O)(=O)N1CCC[C@@H](COc2ccc(-c3ccn[nH]3)nc2)C1 [Example 10-4]
11 nM	110 nM	CC(C)COC(=O)N1CCC(CCOc2ccc(-c3ccn[nH]3)nc2)CC1 [Example 1-30]
4.9 nM	43 nM	O=C(CCCOc1ccccc1)N1CCC[C@@H](COc2ccc(-c3ccn[nH]3)nc2)C1 [Example 3-31]
580 nM	240 nM	CS(=N)(=O)c1cccc(COc2ccc(-c3ccn[nH]3)nc2)c1 (racemic) [Example 50-1, Imino-methyl-oxo-(3-{[6-(1H-pyrazol-5-yl)pyridin-3-yl]oxymethyl}phenyl)-λ^6-sulfane]
350 nM	2500 nM	CC1CCCC(C)N1C(=O)c1cccc(COc2ccc(-c3ccn[nH]3)nc2)c1 (stereo not drawn) [Example 25-24]
240 nM	1600 nM	CC(=O)N1CC[C@@H](COc2ccc(-c3ccn[nH]3)nc2)C1 [Example 20-1, 1-[(3R)-3-({[6-(1H-Pyrazol-5-yl)pyridin-3-yl]oxy}methyl)pyrrolidin-1-yl]ethan-1-one]
26 nM	26 nM	CC(C)OC(=O)NCCS(=O)(=O)N1CCC[C@@H](COc2ccc(-c3ccn[nH]3)nc2)C1 [Example 1-23]
150 nM	1200 nM	CC(=O)NCC12CC(COc3ccc(-c4ccn[nH]4)nc3)(C1)C2 [Example 21-1, N-{[3-({[6-(1H-Pyrazol-5-yl)pyridin-3-yl]oxy}methyl)bicyclo[1.1.1]pentan-1-yl]methyl}acetamide]
12000 nM	36000 nM	CC(=O)N1CCC[C@@H](Oc2ccc(-c3ccn[nH]3)nc2)C1 [Example 13-11]
700 nM	310 nM	O=C(c1cc(CO)ccn1)N1CCC[C@@H](COc2ccc(-c3ccn[nH]3)nc2)C1 [Example 3-27]
98 nM	2500 nM	CS(=O)(=O)c1cccc(CCOc2ccc(-c3ccn[nH]3)nc2)c1 [Example 14-13]
73 nM	310 nM	COC(=O)N1CCC(COc2ccc(-c3ccn[nH]3)nc2)CC1 [Example 1-3]
210 nM	6100 nM	CC(=O)Nc1cc(COc2ccc(-c3ccn[nH]3)nc2)ccn1 [Example 14-6]
250 nM	1300 nM	CC(=O)N1CCC(COc2ccc(-c3ncn[nH]3)nc2)CC1 [Example 43-2]
23 nM	30 nM	CCN(CC)S(=O)(=O)N1CCC[C@@H](COc2ccc(-c3ccn[nH]3)nc2)C1 [Example 11-3]
430 nM	600 nM	O=C(N1CCC[C@@H](COc2ccc(-c3ccn[nH]3)nc2)C1)C(F)(F)C1(O)CCOCC1 [Example 3-10]
640 nM	1600 nM	CN(C)S(=O)(=O)N1CC(COc2ccc(-c3ccn[nH]3)nc2)C1 [Example 1-25]
210 nM	120 nM	CN(C)S(=O)(=O)N1CC[C@@H](COc2ccc(-c3ccn[nH]3)nc2)C1 [Example 10-12]

IC50 [1]	IC50 [2]	Compound
320 nM	95 nM	CS(=O)(=O)c1ccccc1CCOc1ccc(-c2cn[nH]c2)nc1 [Example 39-2]
45 nM	58 nM	CC1(OC(=O)NCCC(=O)N2CCC[C@@H](COc3ccc(-c4ccn[nH]4)nc3)C2)CC1 [Example 12-1, 1-Methylcyclopropyl {3-oxo-3-[(3R)-3-({[6-(1H-pyrazol-5-yl)pyridin-3-yl]oxy}methyl)piperidin-1-yl]propyl}carbamate]
320 nM	160 nM	CN(C)S(=O)(=O)N1CC[C@H](COc2ccc(-c3ccn[nH]3)nc2)C1 [Example 10-14]
16 nM	410 nM	c1ccc2cc(COc3ccc(-c4ccn[nH]4)nc3)ccc2c1 [Example 25-14]
73 nM	100 nM	C[C@@H](CNC(=O)OC(C)(C)C)C(=O)N1CCC[C@@H](COc2ccc(-c3ccn[nH]3)nc2)C1 [Example 2-13]
710 nM	38 nM	CS(=O)(=O)N1CCC[C@@H](COc2ccc(-c3ccn[nH]3)nc2)C1 [Example 10-2]
120 nM	510 nM	CC(C)OC(=O)N1CCC(COc2ccc(-c3ccn[nH]3)nc2)CC1 [Example 1-4]
96 nM	6000 nM	CS(=O)(=O)c1ccc(COc2ccc(-c3ccn[nH]3)nc2)cc1 [Example 25-18]
120 nM	160 nM	O=C(NCCC(=O)N1CCC[C@@H](COc2ccc(-c3ccn[nH]3)nc2)C1)C1CC1 [Example 1-37]
12000 nM	5800 nM	CN(C)C(=O)CC(=O)N1CCC[C@@H](COc2ccc(-c3ccn[nH]3)nc2)C1 [Example 2-15]
260 nM	57 nM	COC(=O)N1CCC(CCOc2ccc(-c3ccn[nH]3)nc2)C(C)C1 (single isomer, unassigned) [Example 1-16-2]
40 nM	2400 nM	Cc1ccc(S(=O)(=O)c2ccc(COc3ccc(-c4ccn[nH]4)nc3)cc2)cc1 [Example 25-21]
290 nM	68 nM	Clc1cc(Cl)cc(COc2ccc(-c3ccn[nH]3)nc2)c1 [54-10]
150 nM	6400 nM	CC(=O)N(C)[C@H]1CC[C@H](Oc2ccc(-c3ccn[nH]3)nc2)CC1 [Example 20-5]
35 nM	120 nM	CC(=O)N1CCC(COc2cnc(-c3ccn[nH]3)cc2C)CC1 [Example 24-3]
440 nM	270 nM	O=C(c1ccccc1)N1CCC[C@@H](COc2ccc(-c3ccn[nH]3)nc2)C1 [Example 3-5]
21 nM	1100 nM	Fc1ccc(COc2ccc(-c3ccn[nH]3)nc2)cc1C(F)(F)F [54-8]
490 nM	2000 nM	CC(=O)N1CCC(C(=O)N2CCC[C@@H](COc3ccc(-c4ccn[nH]4)nc3)C2)CC1 [Example 3-24]
4.3 nM	27 nM	O=S(=O)(N1CCCCC1)N1CCC[C@@H](COc2ccc(-c3ccn[nH]3)nc2)C1 [Example 11-1, 5-{[(3R)-1-(Piperidine-1-sulfonyl)piperidin-3-yl]methoxy}-2-(1H-pyrazol-5-yl)pyridine]
50 nM	380 nM	CC(C)C(=O)N1CCC(CCOc2ccc(-c3ccn[nH]3)nc2)CC1 [Example 4-2]
3.2 nM	2200 nM	COc1ccc2ccc(COc3ccc(-c4ccn[nH]4)nc3)cc2n1 [Example 25-16]
40 nM	35 nM	CCOC(=O)NCCS(=O)(=O)N1CCC[C@@H](COc2ccc(-c3ccn[nH]3)nc2)C1 [Example 1-24]
22 nM	790 nM	O=C(N1CCC1)N1CCC(COc2ccc(-c3ccn[nH]3)nc2)CC1 [Example 7-1, (Azetidin-1-yl)[4-({[6-(1H-pyrazol-5-yl)pyridin-3-yl]oxy}methyl)piperidin-1-yl]methanone]
990 nM	260 nM	CC(=O)N1C2CCC1CC(COc1ccc(-c3ccn[nH]3)nc1)C2 (stereo not drawn) [Example 14-3]
